Patent EP4682141A1, “TRICYCLIC COMPOUND” (ONO Pharmaceutical Co., Ltd., priority 2023, dated 2024)

Assays:
EP1 = target: T1, EP1 (Homo sapiens, UniProt P34995); test: agonist activity on human EP1 receptor (intracellular calcium concentration, EP1-CHO cells); assay type: cell-based
T1 construct: expressed in transfected cells; host or cells: CHO (EP1-CHO)
T1 sequence (P34995 1-402): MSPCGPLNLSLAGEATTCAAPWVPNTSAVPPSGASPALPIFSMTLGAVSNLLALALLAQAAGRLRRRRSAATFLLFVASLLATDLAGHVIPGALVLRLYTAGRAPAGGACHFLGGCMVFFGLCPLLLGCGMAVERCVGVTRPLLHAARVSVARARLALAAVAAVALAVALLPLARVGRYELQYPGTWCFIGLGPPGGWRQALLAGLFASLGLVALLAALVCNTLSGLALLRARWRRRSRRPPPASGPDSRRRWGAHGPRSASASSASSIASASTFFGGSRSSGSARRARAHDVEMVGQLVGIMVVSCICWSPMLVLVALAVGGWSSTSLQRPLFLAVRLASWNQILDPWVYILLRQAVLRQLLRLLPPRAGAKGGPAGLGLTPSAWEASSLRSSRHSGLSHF
Procedure: (§1) Using CHO cells (EP1-CHO, EP2-CHO, EP3-Chem1, EP4-CHO and IP-CHO) on which various human prostanoid receptors were forcibly expressed, the agonist activity of the test compound on the various prostanoid receptors was examined using the intracellular calcium concentration for EP1 and EP3, and the intracellular cyclic AMP (hereinafter, abbreviated as cAMP) production amount for EP2, EP4 and IP as indices.
(§2) The test compound and control substances (PGE2 and iloprost) were dissolved in dimethyl sulfoxide (DMSO) to prepare a 10 mmol/L solution. The prepared 10 mmol/L solution was thawed at the time of use, serially diluted using DMSO, and diluted with a buffer solution 1 for measurement (Hank's balanced salt solution (Thermofischer scientific) containing 1 w/v% human serum albumin (Sigma), 2 µmol/L indomethacin (Sigma), 2.5 mmol/L probenecid, and 10 mmol/L HEPES-NaOH (pH7.4)) or a buffer solution 2 for measurement (D-PBS (Nacalai Tesque) containing 0.1 w/v% human serum albumin, 2 µmol/L diclofenac (Sigma), and 1 mmol/L 3-isobutyl-1-methylxanthine (Sigma)) to perform experiments.
The intracellular calcium concentration was measured using Calcium 6 Assay Kit (Molecular Devices). On the day before the measurement, EP1-CHO and EP3-Chem 1 were obtained by thawing the frozen cells, suspended using Ham's F-12 medium (Thermofischer scientific) containing inactivated (56°C, 30 min) 9.8 vol% FBS (Thermofischer scientific) and penicillin-streptomycin (Nacalai Tesque), seeded into a 96 well UV plate to 1.0×10^5 cells per well, and static cultured at 37°C in the presence of 5%CO2. On the day of the measurement, the medium was removed, followed by addition of 120 µL of the Calcium indication solution dissolved in the buffer solution 1 for measurement and incubation at room temperature under light-shielding for about 1 hour. After 1 hour incubation, the 96 well UV plates were set in a fluorescence spectrophotometer (FDSS-7000, Hamamatsu Photonics) to measure the intracellular calcium concentration. Thirty microliters of the buffer solution 1 for measurement containing various concentrations of agonists were added, and the mixture was reacted. The intracellular calcium concentration was measured by irradiating the cells with 480 nm excitation light and measuring the fluorescence intensity at 540 nm.

EP2 = target: T2, EP2 (Homo sapiens, UniProt P43116); test: agonist activity on human EP2 receptor (cAMP production, EP2-CHO cells); assay type: cell-based
T2 construct: expressed in transfected cells; host or cells: CHO (EP2-CHO)
T2 sequence (P43116 whole entry): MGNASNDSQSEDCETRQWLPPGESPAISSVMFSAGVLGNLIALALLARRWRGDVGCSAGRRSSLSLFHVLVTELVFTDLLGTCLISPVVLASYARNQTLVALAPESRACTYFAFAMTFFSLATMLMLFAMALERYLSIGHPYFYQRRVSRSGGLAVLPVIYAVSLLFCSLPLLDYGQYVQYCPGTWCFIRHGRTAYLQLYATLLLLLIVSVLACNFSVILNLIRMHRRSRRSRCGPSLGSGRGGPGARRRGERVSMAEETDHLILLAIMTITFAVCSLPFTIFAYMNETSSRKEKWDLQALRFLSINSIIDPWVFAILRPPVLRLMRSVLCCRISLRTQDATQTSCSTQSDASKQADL
Procedure: as §1
(§3) The test compound and control substances (PGE2 and iloprost) were dissolved in dimethyl sulfoxide (DMSO) to prepare a 10 mmol/L solution. […]
(§4) On the day of the measurement, EP2-CHO, EP4-CHO, and IP-CHO were obtained by thawing frozen cells. […] The cAMP concentration was measured using a cAMP HTRF HiRange kit (CIS bio International). […] After incubation for 1 hour, time-resolved fluorescence at 620 nm and 660 nm when excited at 340 nm was measured using Synergy Neo (Bioteck), and the ratio (TRF ratio) was determined to calculate the cAMP concentration from the calibration curve.

IP = target: T3, IP (Homo sapiens, UniProt P43119); test: agonist activity on human IP receptor (cAMP production, IP-CHO cells); assay type: cell-based
T3 construct: expressed in transfected cells; host or cells: CHO (IP-CHO)
T3 sequence (P43119 whole entry): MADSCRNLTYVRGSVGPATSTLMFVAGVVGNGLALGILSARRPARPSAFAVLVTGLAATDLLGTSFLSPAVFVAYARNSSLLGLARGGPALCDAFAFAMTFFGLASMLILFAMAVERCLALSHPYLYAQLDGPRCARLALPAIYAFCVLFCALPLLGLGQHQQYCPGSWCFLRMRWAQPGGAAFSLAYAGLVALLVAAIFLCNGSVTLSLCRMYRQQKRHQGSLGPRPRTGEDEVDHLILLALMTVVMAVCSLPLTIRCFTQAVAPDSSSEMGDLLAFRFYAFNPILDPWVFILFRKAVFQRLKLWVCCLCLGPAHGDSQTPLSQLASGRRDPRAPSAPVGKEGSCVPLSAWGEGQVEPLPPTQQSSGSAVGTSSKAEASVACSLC
Procedure: as §1, §3, §4

EP4 = target: T4, EP4 (Homo sapiens, UniProt P35408); test: agonist activity on human EP4 receptor (cAMP production, EP4-CHO cells); assay type: cell-based
T4 construct: expressed in transfected cells; host or cells: CHO (EP4-CHO)
T4 sequence (P35408 whole entry): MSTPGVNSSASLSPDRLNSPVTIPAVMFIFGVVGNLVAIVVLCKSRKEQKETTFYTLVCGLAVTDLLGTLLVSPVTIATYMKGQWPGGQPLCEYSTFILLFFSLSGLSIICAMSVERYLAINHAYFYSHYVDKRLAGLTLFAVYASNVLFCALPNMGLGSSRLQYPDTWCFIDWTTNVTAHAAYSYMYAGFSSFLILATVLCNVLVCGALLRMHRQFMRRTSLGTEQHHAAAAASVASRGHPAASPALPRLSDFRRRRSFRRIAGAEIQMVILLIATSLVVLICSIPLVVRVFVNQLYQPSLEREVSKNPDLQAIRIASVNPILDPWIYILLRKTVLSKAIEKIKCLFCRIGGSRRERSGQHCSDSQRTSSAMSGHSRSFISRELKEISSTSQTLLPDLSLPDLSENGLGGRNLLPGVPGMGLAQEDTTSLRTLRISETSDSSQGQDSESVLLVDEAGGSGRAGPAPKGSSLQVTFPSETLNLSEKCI
Procedure: as §1, §3, §4

EP3 receptor = target: T5, EP3 receptor (Homo sapiens, UniProt P43115); test: agonist activity on human EP3 receptor (intracellular calcium concentration, EP3-Chem1 cells); assay type: cell-based; conditions: agonist activity on the EP3 receptor
T5 construct: expressed in transfected cells; host or cells: EP3-Chem1
T5 sequence (P43115 1-390): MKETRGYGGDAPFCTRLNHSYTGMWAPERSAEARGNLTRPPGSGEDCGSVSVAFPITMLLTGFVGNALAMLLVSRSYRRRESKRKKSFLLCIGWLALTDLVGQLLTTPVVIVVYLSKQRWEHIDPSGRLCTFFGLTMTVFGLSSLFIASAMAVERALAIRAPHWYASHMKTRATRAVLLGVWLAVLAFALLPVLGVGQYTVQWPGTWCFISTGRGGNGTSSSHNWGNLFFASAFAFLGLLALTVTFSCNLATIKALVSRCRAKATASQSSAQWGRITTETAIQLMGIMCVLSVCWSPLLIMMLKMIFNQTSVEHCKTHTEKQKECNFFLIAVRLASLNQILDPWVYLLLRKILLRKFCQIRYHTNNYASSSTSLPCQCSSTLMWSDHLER
Procedure: as §1, §2

[1] = system: diabetic renal disease model rat; test: in vivo drug efficacy in diabetic renal disease model rat (single kidney removal, saline); parameters: species or system SDT.Cg-Leprfa/JttJcl (SDT-fatty rat); conditions: 8 weeks after the start of administration
Procedure: A diabetic renal disease model was created by extracting the unilateral kidneys of male SDT.Cg-Leprfa/JttJcl (SDT-fatty/Jcl, CLEA Japan) rats, a type 2 diabetes model, and then giving saline. The in vivo drug efficacy of the present compound on diabetic renal disease was evaluated in this model.
Male SDT.Cg-Leprfa/JttJcl (SDT-fatty rat) aged 4 weeks was purchased from CLEA Japan, and subjected to experiments. The animals were fed ad libitum with Purina5008 (Japan SLC) from the time of arrival, and watered ad libitum. Water was given from the arrival and until 1 week from single kidney removal, and a 0.2 w/v% NaCl solution was given 1 week after single kidney removal.
After acclimation breeding, the body weight was measured, and buprenorphine was subcutaneously administered at a dose of 0.01 mg/kg under inhalation anesthesia with isoflurane (Mayran). After removing hair from the right abdomen of the rat, the right abdomen was disinfected with ethanol and isodine for disinfection and incised to expose the right kidney. The renal artery and vein was ligated with a suture to stop the blood flow, the right kidney was totally removed, and the incision was sutured. The following day, analgesic buprenorphine was administered subcutaneously at a dose of 0.01 mg/kg.
Grouping was performed 3 weeks after single kidney removal. The mice were divided into groups so that the average of the above parameters was almost equal between the groups on the basis of body weight, serum urea nitrogen (BUN), serum creatinine (S-CRE), serum total cholesterol (T-CHO), blood glucose level (GLU), neutral fat (TG), urinary protein (U-TP), urinary albumin (U-ALB), and creatinine clearance (CCr).
All of the compounds of Examples 25-7, 10, 11 and 12 were orally administered once a day for 8 weeks in combination with losartan (30 mg/kg), a renin angiotensin system inhibitor, and canagliflozin (10 mg/kg), a glucose co-transporter inhibitor. The compounds of Examples 25-7, 10, 11 and 12, and losartan were each dissolved in water for injection (Otsuka Pharmaceutical), and canagliflozin was suspended in a 0.5% methyl cellulose solution (Fujifilm Wako Pure Chemical Corporation) to prepare an administration solution. In the Control-1 group, water for injection which is a vehicle of losartan or the compound of Examples 25-7, 10, 11 or 12 was orally administered at 5 mL/kg, and a 0.5% methylcellulose solution which is a vehicle of canagliflozin was orally administered at 2.5 mL/kg once a day for 8 weeks. In the Control-2 group, losartan (30 mg/kg) dissolved in water for injection was orally administered at an administration volume of 2.5 mL/kg, canagliflozin (10 mg/kg) suspended in a 0.5% methyl cellulose solution was orally administered at an administration volume of 2.5 mL/kg, and water for injection which is a vehicle of the compounds of Examples 25-7, 10, 11 and 12 was orally administered at an administration volume of 2.5 mL/kg once a day for 8 weeks. The administration dose is described in Table 8.
Blood was collected by puncturing the tail vein of the rat with an injection needle. Blood was collected in a tube for serum separation (BD Microtainer) and centrifuged to obtain serum. Urine was collected for 24 hours in a metabolic cage for rat under conditions in which a solid feed and water can be freely taken. The obtained urine sample was centrifuged, and the supernatant was subjected to measurement. The concentrations of BUN, S-CRE, T-CHO, TG, U-ALB, U-TP, GLU and U-CRE were measured by an automatic analyzer Hitachi 7180 (Hitachi High-Tech).

[2] = system: rat 5/6 kidney-removed model; test: in vivo drug efficacy on renal damage in rat 5/6 kidney-removed model; parameters: species or system Jcl: Wistar (Wistar) rats; conditions: after 8 weeks from the start of administration
Source text: The obtained urine sample was centrifuged, and the supernatant was subjected to measurement.

diabetes model rat = test: inhibitory effect on the amount of albumin excreted in urine in diabetes model rat; assay type: in vivo, SDT Fatty rats; conditions: urine collected for 24 hours, urine albumin/urine creatinine ratio
Procedure: Male SDT Fatty rats aged 6 weeks (CLEA Japan) were purchased and preliminarily bred for 1 week or more. Experiments were performed at 8 to 16 weeks of age. The animals were fed ad libitum with solid feed CRF-1 (Oriental Yeast) and watered ad libitum.
Animals were housed in metabolic cages 2 days before test substance administration, and urine was collected for 24 hours. On the day before administration of the test substance, urine albumin and urine creatinine were measured, and grouping was performed by a stratification randomization method based on the urine albumin/urine creatinine ratio (ACR) and the average value of body weights for each group.
The compounds (test substances) of Examples 9-5, 10, 11, 12, 25-7 and 32, and water for injection (Otsuka Pharmaceutical) as a vehicle were orally administered once at 5 mL/kg. The administration dose is described in Table 3.
For evaluation of the amount of albumin excreted in urine of each animal, a urine albumin/urine creatinine ratio (ACR) was measured. After administration of the test substance, the animals were housed in metabolic cages, and urine was collected for 24 hours. Each concentration of urine albumin and urine creatinine was measured using an automatic analyzer 7180 (Hitachi High-Tech), and ACR was calculated by dividing the urine albumin concentration by the urine creatinine concentration.

| Molecule | EC50 (EP1) [µM] | EC50 (EP2) [µM] | EC50 (IP) [µM] | EC50 (EP4) [nM] | EC50 (EP3 receptor) [nM] | Serum creatinine mean ([1]; 0.01 mg/kg orally once a day for 8 weeks in combination with losartan (30 mg/kg) and canagliflozin (10 mg/kg)) [mg/dL] | Serum creatinine mean ([1]; 0.03 mg/kg orally once a day for 8 weeks in combination with losartan (30 mg/kg) and canagliflozin (10 mg/kg)) [mg/dL] | Amount of albumin excreted in urine mean ([2]; 0.01 mg/kg orally once a day for 8 weeks) [mg/24 h] | Amount of albumin excreted in urine mean ([2]; 0.03 mg/kg orally once a day for 8 weeks) [mg/24 h] | ACR mean (diabetes model rat; 0.01 mg/kg orally once) [µg/mg] | ACR mean (diabetes model rat; 0.03 mg/kg orally once) [µg/mg] |
| --- | --- | --- | --- | --- | --- | --- | --- | --- | --- | --- | --- |
| (1R,2R,3aS,10aR)-2,5-difluoro-1-[(1E,3ξ)-3-hydroxy-4-methyl-4-phenyl-1-penten-yl]-2,3,3a,9,10,10a-hexahydro-1H-benzo[b]cyclopenta[f]oxepine-6-carboxylic acid [Example 28] | > 10 | > 10 | > 10 | 1100 | 30 |  |  |  |  |  |  |
| Cc1c(C(=O)O)ccc2c1O[C@H]1C[C@@H](O)[C@H](/C=C/C[C@@](C)(O)CCC(F)=C(F)F)[C@H]1CC2 [Example 11, (1R,2R,3aS,10aR)-2-hydroxy-5-methyl-1-[(1E,45)-7,8,8-trifluoro-4-hydroxy-4-methyl-1,7-octadien-1-yl]-2,3,3a,9,10,10a-hexahydro-1H-benzo[b]cyclopenta[f]oxepine-6-carboxylic acid] | > 10 |  |  |  |  | 0.46 | 0.47 | 46.01 | 37.94 | 1010.5 | 575.3 |
